Source: paper PMC12956279 (2026)

Key:
Experiment in all cases: in-gel dye staining after TBE-urea PAGE
Settings in all cases: 100 mM KCl, 1 mM MgCl2; 40 mM HEPES pH 7.5, 10 µM dye; very low fluorescence
[1] = tested on: 4LE-v3 (DNA, aptamer) TCCTTCGCACAGCACACCTGCCGTATAGCTCTGAATCAATAGTAGGGATGATGCGGCAGTGGGCTTCGCAGAACAGTGTTTATTCTGCGAGGGGACTAGGATTTTAGGGAGGCGATTCCTCCTGCC
[2] = tested on: 4LE-v1 (DNA, aptamer) TCCTTCGCACAGCACATAGTAGGGATGATGCGGCAGTGGGCTTCGCAGAACAGTGTTTATTCTGCGAGGGGACTACCTGCCGTATAGCTCTGAATCAAGGATTTTAGGGAGGCGATTCCTCCTGCC
[3] = tested on: 4LE-v2 (DNA, aptamer) TCCTTCGCACAGCACACCTGCCGTATTAGTAGGGATGATGCGGCAGTGGGCTTCGCAGAACAGTGTTTATTCTGCGAGGGGACTAAGCTCTGAATCAAGGATTTTAGGGAGGCGATTCCTCCTGCC

Measured: binding

CC1=N/C(=C\c2cc(F)c(O)c(F)c2)C(=O)N1CC(F)(F)F
weak: all assays above
